Experimental findings from ChEMBL document CHEMBL1201862, “PubChem BioAssay data set” (2004) are described below.

Molecules are shown by their SMILES.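 A five-concentration, 48-hour dose response in 96-well plates underlies each endpoint, interpolated linearly between surrounding concentrations. GI50 is the concentration that inhibits growth by half.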 Activity calls are given as the source filed them. Rule as the data show it: active = GI50 up to about 1.1 µM and inactive = higher.

Common to all, as to assay: NCI tumour cell line growth inhibition, 48 h
The subject of assay [1] is EKVX.
The test system of assay [2] is HOP-62.
In assay [3] the test system is UACC-62.
Assay [4] deals with ACHN.
The subject of assay [5] is UO-31.
For assay [6], the system named is U-251.
For assay [7], the system named is SF-295.
For assay [8], the system named is M14.
Assay [9] has as its system SF-539.
The subject of assay [10] is SF-268.
Assay [11] relates to MOLT-4.
For assay [12], the system named is NCI-H522.
In assay [13] the test system is CCRF-CEM.
The subject of assay [14] is TK-10.
Assay [15] has as its system HL-60.
The subject of assay [16] is RXF 393.
For assay [17], the system named is CAKI-1.

Take `COC(=O)C(/C(=N/N)C(=O)Nc1cc(Cl)ccc1Cl)c1nc2ccc([N+](=O)[O-])cc2nc1O` (centres undefined): the GI50 in assay [1] was 72.8 µM (inactive); in [2], > 100 µM (inactive); in assay [3], > 100 µM (inactive); in [4], 39.1 µM (inactive); in [5], 40 µM (inactive); in assay [6] it was > 100 µM (inactive). In addition, the GI50 is > 100 µM (inactive) in assay [7]; 72.3 µM (inactive) in assay [8]; 93.3 µM (inactive) in assay [9]; 92.3 µM (inactive) in assay [10]; 17 µM (inactive) in assay [11]; 21.3 µM (inactive) in assay [12]. Besides, the figures for the GI50 in assay [13], in [14] and in assay [15] were 25 µM (inactive), > 100 µM (inactive) and > 100 µM (inactive), respectively.

Regarding `CCN(N=O)C1C2(CCCC2)NC(=O)C12CCCC2` (centres undefined), the GI50 in assay [1], in [2], in [3], in [16], in assay [4] and in [5] was > 100 µM (inactive) throughout. The GI50 in assay [6], in [7], in [8], in assay [9], in [10] and in assay [11] was > 100 µM (inactive) each time. Besides, the GI50 in [13], in assay [14] and in [15] was > 100 µM (inactive) each time.

Turning to `CC(C)C1CCC/C=C/C=C/C=C/C=C/C(OC2OC(C)C(O)C(N)C2O)CC2OC(O)(CC(O)CC(O)C(O)CCC(=O)O1)CC(O)C2C(=O)O` (centres undefined), the GI50 in assay [2], in assay [3], in assay [4], in [17], in [5] and in assay [6] was > 52.5 µM (inactive) in each case. The GI50 in assay [7], in [8], in assay [9], in [10], in [11] and in assay [12] was > 52.5 µM (inactive) throughout. In addition, the GI50 in assay [13] and in assay [15] was > 52.5 µM (inactive) each time.

Turning to `C=CNC(=O)NC(=O)CSc1nc(=O)c(-c2ccccc2NC(=O)C(F)(F)F)n[nH]1`, the GI50 in assay [1] was 75 µM (inactive); in assay [2] it was 94 µM (inactive); in assay [3] it was > 100 µM (inactive); in assay [16], > 100 µM (inactive); in assay [17], > 100 µM (inactive); in assay [5], > 100 µM (inactive). The GI50 in assay [6] is 23.7 µM (inactive); in assay [7], 50 µM (inactive); in [8], 23.4 µM (inactive); in assay [9], 74.6 µM (inactive); in [10], 37.4 µM (inactive); in assay [11], > 100 µM (inactive). The GI50 is 51.6 µM (inactive) in [12], > 100 µM (inactive) in assay [13] and 68.9 µM (inactive) in [14].

Regarding `Cc1c2n(c(=O)[nH]c1=O)C1OC(CO)C(O2)C1O` (centres undefined), the GI50 in assay [1], in [2], in assay [3], in assay [16], in assay [4] and in assay [17] was > 100 µM (inactive) in each case. In addition, the GI50 in assay [5], in [6], in assay [7], in assay [9], in assay [10] and in [11] was > 100 µM (inactive) each time. For the same compound, the GI50 in assay [12], in [13], in assay [14] and in assay [15] was > 100 µM (inactive) in each case.

As to `O=C(c1ccc(Cl)cc1)N(C(=S)N1CCN(c2ccccn2)CC1)C1CCCCC1`, the GI50 in assay [2] was 71.8 µM (inactive); in assay [3], > 100 µM (inactive); in [16], 35.6 µM (inactive); in assay [4], 43.6 µM (inactive); in assay [17], > 100 µM (inactive); in assay [5], 48.3 µM (inactive). In addition, the GI50 is 37.2 µM (inactive) in [6]; 74.1 µM (inactive) in assay [7]; > 100 µM (inactive) in assay [8]; 61.7 µM (inactive) in assay [9]; 27.3 µM (inactive) in assay [10]; 24.3 µM (inactive) in [11]. Also, the GI50 in [12] is 38.6 µM (inactive); in [13], 48.5 µM (inactive); in assay [14], > 100 µM (inactive); in assay [15], 17.3 µM (inactive).

As for `O=C(O)c1ccccc1/N=N/c1ccc2oc(=O)c(C(=O)Nc3ccccc3)cc2c1`, the GI50 in assay [1] is 30.1 µM (inactive); in assay [2], 35.6 µM (inactive); in [3] it was 22.9 µM (inactive); in [16], 28.4 µM (inactive); in assay [4], 50.2 µM (inactive); in assay [5] it was 37.1 µM (inactive). The GI50 was 42.4 µM (inactive) in assay [6]; 50.2 µM (inactive) in assay [7]; 47.9 µM (inactive) in assay [8]; 31.3 µM (inactive) in assay [9]; 32.8 µM (inactive) in [11]; 34.8 µM (inactive) in assay [12]. The GI50 in assay [13] is 28.6 µM (inactive); in assay [14], 61.5 µM (inactive); in assay [15], 24.4 µM (inactive).

On to `Cc1c(C(=O)/C=C/c2c(Cl)cccc2Cl)c(=O)n(-c2ccccc2)n1C`, for which the GI50 in assay [1] is 50.1 µM (inactive); in [3], 21.6 µM (inactive); in assay [16], 5.79 µM (inactive); in [4] it was 25.8 µM (inactive); in [17], 19 µM (inactive); in assay [5], 31.8 µM (inactive). Moreover, the GI50 in [6] was 0.0147 µM (active); in [7], 26 µM (inactive); in [9], > 10 µM (inactive); in [10] it was 24.1 µM (inactive); in assay [11], 5.38 µM (inactive); in [12], 12.8 µM (inactive). Moreover, the GI50 in assay [13] is 2.74 µM (inactive); in [14] it was 54.7 µM (inactive).

Regarding `Nc1cc(O)nc(SC2=NC(N)CC(O)C2)n1` (centres undefined), the GI50 in assay [1], in assay [2], in assay [3], in [4], in assay [17] and in [5] was > 100 µM (inactive) in each case. The GI50 in [6], in assay [7], in assay [8], in assay [9], in assay [11] and in assay [12] was > 100 µM (inactive) in each case. Moreover, the GI50 in assay [13] and in assay [14] was > 100 µM (inactive) each time.

With `CCCN(CCCN)/[N+]([O-])=N\O`, the GI50 was 0.24 µM (active) in [1]; > 100 µM (inactive) in assay [2]; 0.195 µM (active) in assay [3]; > 100 µM (inactive) in [16]; > 100 µM (inactive) in assay [4]; > 100 µM (inactive) in assay [17]. The GI50 in assay [5], in assay [6], in assay [7], in assay [8], in [9] and in [10] was > 100 µM (inactive) in each case. Moreover, the GI50 in [11], in [12], in [13] and in [15] was > 100 µM (inactive) throughout.

In the case of `COC1(OC)C(N(C)C)=C(Cl)C(=O)/C1=C/C=O`, the GI50 in [2] was > 100 µM (inactive); in assay [3] it was 40 µM (inactive); in [4], 92 µM (inactive); in assay [17], > 100 µM (inactive); in [5], > 100 µM (inactive); in assay [6], > 100 µM (inactive). The GI50 in assay [7] is > 100 µM (inactive); in [8], > 100 µM (inactive); in assay [10] it was > 100 µM (inactive); in [11], > 100 µM (inactive); in assay [13] it was 20.9 µM (inactive); in assay [14], > 100 µM (inactive). Also, the GI50 in [15] was 77.4 µM (inactive).

On to `CC(C)(C)c1cc(C(P(=O)(O)O)P(=O)(O)O)cc(C(C)(C)C)c1O`, for which the GI50 in assay [1], in [2], in assay [3], in assay [4], in [17] and in [5] was > 100 µM (inactive) each time. Further, the GI50 in [6], in [7], in [8], in assay [9], in assay [10] and in assay [11] was > 100 µM (inactive) throughout. The GI50 in assay [12], in assay [13], in assay [14] and in assay [15] was > 100 µM (inactive) throughout.

Regarding `Nc1ccn(C2(CO)C=C(CO)C(O)C2O)c(=O)n1` (centres undefined), the GI50 in [1], in assay [2], in assay [3], in [16], in assay [4] and in assay [17] was > 25.8 µM (inactive) throughout. Further, the GI50 in assay [5], in assay [6], in assay [8], in assay [9], in assay [10] and in [11] was > 25.8 µM (inactive) throughout. For the same compound, the GI50 in [12], in assay [14] and in assay [15] was > 25.8 µM (inactive) throughout.
